In ChEMBL document CHEMBL1150038, “Conformation of the CYP2D6 model substrate sparteine under physiological conditions” (Bioorg Med Chem Lett, 1993) one finds pKa data, which are given here for one molecule.

This series in a line: pKa value was determined. Type of series: physicochemical.

Take `C1CCN2C[C@@H]3C[C@@H](CN4CCCC[C@@H]34)[C@H]2C1` [SPARTEINE]: the pKa was 11.4.

By pKa is commonly meant the negative logarithm of the acid dissociation constant. Low readings indicate a group that gives up its proton readily, high ones a group that holds its proton tightly.
